Reference: ChEMBL document CHEMBL5728008, “Compound used as Bruton's tyrosine kinase inhibitor and preparation method and application thereof” (2020)

Target: Tyrosine-protein kinase BTK (Homo sapiens, UniProt Q06187)
Test: In Vitro Assay for the Inhibition of BTK Kinase Activity: 1: Test Principle:Mobility-Shift Assay, which is microfluidic chip technology, applies the basic concept of capillary electrophoresis to microfluidic environments. The substrate used for the experiment is a polypeptide with a fluorescent label. Under the action of enzyme in the reaction system, the substrate is transformed into a product, and the charge the substrate carries also changes accordingly. The use of the charge difference between the substrate and the product involved in Mobility-Shift Assay achieves the separating of the two, and they are tested respectively.

Sequence of Tyrosine-protein kinase BTK (Q06187 whole entry): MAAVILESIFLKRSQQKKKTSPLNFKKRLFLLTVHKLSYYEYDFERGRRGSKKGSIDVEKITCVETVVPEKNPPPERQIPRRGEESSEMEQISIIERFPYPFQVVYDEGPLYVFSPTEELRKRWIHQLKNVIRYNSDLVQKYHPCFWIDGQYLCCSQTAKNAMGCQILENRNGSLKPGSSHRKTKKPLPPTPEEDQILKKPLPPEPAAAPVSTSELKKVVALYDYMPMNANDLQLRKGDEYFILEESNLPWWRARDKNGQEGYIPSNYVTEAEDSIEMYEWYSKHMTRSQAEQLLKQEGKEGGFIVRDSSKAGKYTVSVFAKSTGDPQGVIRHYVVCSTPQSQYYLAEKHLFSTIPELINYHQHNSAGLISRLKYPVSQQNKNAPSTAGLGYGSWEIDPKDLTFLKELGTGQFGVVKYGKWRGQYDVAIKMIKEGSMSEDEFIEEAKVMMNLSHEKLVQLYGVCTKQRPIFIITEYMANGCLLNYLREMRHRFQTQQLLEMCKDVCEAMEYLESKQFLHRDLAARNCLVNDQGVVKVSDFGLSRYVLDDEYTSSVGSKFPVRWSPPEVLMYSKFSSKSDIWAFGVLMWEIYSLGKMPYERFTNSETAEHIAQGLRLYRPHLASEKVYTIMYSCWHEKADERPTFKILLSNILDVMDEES

SMILES: C=CC(=O)N1CC2CCCC2C1c1nc(-c2ccc(C(=O)Nc3ccccn3)cc2)c2c(N)nccn12 (stereo unspecified)
- IC50: 4.7 nM
